In series [1] the target is T1, Mineralocorticoid receptor (Homo sapiens, UniProt P08235).
T1 sequence (P08235 whole entry): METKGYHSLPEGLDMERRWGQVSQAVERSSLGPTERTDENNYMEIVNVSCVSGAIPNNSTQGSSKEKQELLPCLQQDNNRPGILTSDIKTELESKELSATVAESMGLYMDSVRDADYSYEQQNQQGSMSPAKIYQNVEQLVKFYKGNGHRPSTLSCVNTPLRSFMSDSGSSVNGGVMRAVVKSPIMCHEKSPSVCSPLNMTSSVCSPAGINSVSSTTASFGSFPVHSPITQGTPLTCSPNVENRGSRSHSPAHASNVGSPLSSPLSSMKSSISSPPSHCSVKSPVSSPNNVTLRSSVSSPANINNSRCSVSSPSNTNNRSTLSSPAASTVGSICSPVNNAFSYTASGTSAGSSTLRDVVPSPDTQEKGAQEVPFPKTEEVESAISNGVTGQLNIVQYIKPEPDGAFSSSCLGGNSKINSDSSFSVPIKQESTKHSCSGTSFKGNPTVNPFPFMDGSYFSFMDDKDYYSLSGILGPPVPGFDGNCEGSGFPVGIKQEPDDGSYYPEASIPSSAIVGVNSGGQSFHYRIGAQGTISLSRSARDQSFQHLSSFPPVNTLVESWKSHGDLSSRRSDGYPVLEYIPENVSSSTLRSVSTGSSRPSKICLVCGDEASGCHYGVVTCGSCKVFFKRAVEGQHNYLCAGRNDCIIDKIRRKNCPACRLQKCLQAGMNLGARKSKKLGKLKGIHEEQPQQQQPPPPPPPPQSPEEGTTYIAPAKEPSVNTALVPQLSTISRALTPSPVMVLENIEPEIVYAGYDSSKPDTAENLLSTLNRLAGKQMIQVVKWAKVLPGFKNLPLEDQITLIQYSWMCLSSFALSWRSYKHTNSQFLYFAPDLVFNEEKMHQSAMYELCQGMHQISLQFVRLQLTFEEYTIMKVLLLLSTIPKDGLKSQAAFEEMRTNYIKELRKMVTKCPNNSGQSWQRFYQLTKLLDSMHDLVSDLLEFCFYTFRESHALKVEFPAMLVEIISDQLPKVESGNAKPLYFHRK
Description: Antagonist activity at Gal4-fused MR LBD (unknown origin) expressed in human Huh7 cells assessed as inhibition of aldosterone-induced transcriptional activity after 3 hrs by luciferase reporter gene assay. The series is classed as cell-based. In general terms: In a reporter assay the amount or activity of a reporter protein is the signal.

Series [2] has as its system Rattus norvegicus. Description: In vivo antagonist activity at MR in rat assessed as inhibition aldosterone-induced decrease in urinary sodium/potassium ratio at 30 mg/kg, po after 20 hrs. The series is classed as functional.
In series [3] the target is T1, Mineralocorticoid receptor. Description: Antagonist activity at human MR overexpressed in HEK293 cells assessed as inhibition of aldosterone-induced response measured after overnight incubation by luciferase reporter gene assay. The series is classed as cell-based.
The target in series [4] is T1, Mineralocorticoid receptor. Description: Displacement of [3H]-Aldosterone from MR overexpressed in human 293 cells measured after 2 hrs by Microbeta scintillation counting method. The series is classed as cell-based.
In series [5] the target is T1, Mineralocorticoid receptor. Description: Antagonist activity at Gal4-fused human MR LBD (734 to 985 residues) expressed in CHO-K1 cells after 5 to 6 hrs by luciferase reporter gene assay. The series is classed as cell-based.
The species named for the next series is Homo sapiens. Kind of series: Ratio of IC50 for Gal4-fused human AR expressed in CHO-K1 cells to IC50 for Gal4-fused human MR expressed in CHO-K1 cells. The series is classed as cell-based.
Series [6] addresses T1, Mineralocorticoid receptor. Description: Displacement of [3H]-cortisol from MR overexpressed in human 293 cells measured after 2 hrs by Microbeta scintillation counting method. The series is classed as cell-based. (In general: Loss of bound radioactivity is the signal in a displacement assay; it reports binding, not function.)
For series [7], the target named is T1, Mineralocorticoid receptor. Kind of series: Antagonist activity at Gal4-fused human MR LBD (672 to 984 residues) expressed in HEK293T cells assessed as inhibition of aldosterone-induced transactivation activity after 24 hrs by luciferase reporter gene assay. The series is classed as cell-based, HEK-293T.
The subject of series [8] is Rattus norvegicus. Description: In vivo antagonist activity at MR in rat assessed as inhibition aldosterone-induced decrease in urinary sodium/potassium ratio at 3 mg/kg, po after 20 hrs. The series is classed as functional.
A short description of series [9]: Half life in human liver microsomes. The series is classed as ADME, microsome.
The target in series [10] is T2, Mineralocorticoid receptor (Homo sapiens) (UniProt P08235).
T2 sequence (whole entry): T1 sequence (P08235 whole entry)
Kind of series: Antagonist activity at full-length human MR expressed in CHO-K1 cells assessed as inhibition of aldosterone-induced response measured after overnight incubation by luminesence analysis. The series is classed as cell-based.

A short description of series [11]: Half life in rat. The series is classed as ADME. Conditions: in vivo.
Series [12] can be described thus: Clearance in rat. The series is classed as ADME. Conditions: in vivo.
Series [13] is described as follows: Half life in human hepatocytes. The series is classed as ADME, cell-based, Hepatocyte.
Series [14] deals with Rattus norvegicus. Description: In vivo antagonist activity at MR in rat assessed as inhibition aldosterone-induced decrease in urinary sodium/potassium ratio at 30 mg/kg, po after 8 hrs. The series is classed as functional.

Some results are limits rather than exact numbers.

As usually defined, the IC50 is the concentration that gives 50% inhibition. One may read the inhibition in vivo as the change of the read-out against control, counted positive when it falls. As usually defined, the Ki is the dissociation constant of the complex between target and ligand, obtained from inhibition or displacement. In general, half-life refers to the time in which the quantity being followed falls by half. The low end stands for rapid decline, the high end for slow decline. The clearance is the volume of plasma or blood freed of the substance per unit of time. A low value points to inefficient removal.

Turning to `C[C@@H]1CN(c2ccc3c(c2)NC(=O)CO3)[C@H](c2ccccc2F)CO1`, the concentration for half-maximal inhibition (IC50) in series [1] stood at 33.4 nM. On to `CC(=O)S[C@@H]1CC2=CC(=O)CC[C@]2(C)[C@H]2CC[C@@]3(C)[C@@H](CC[C@@]34CCC(=O)O4)[C@H]12` [SPIRONOLACTONE], for which the inhibition in vivo at 30 mg/kg in the series with Rattus norvegicus [2] is below 20%. Take `C[C@H](CN1CCOCC1)n1/c(=N\C#N)[nH]c2cc(/C=C3\c4ccccc4COc4cc(F)ccc43)ccc21`: in [3], the half-maximal inhibitory concentration (IC50) was determined as 21 nM. In addition, in series [4], the affinity, expressed as Ki, was 0.4 nM.

In turn, `CCOC(=O)C1=C(C)NC(C)=C(C(C)=O)[C@H]1c1cccc2c(=O)cc(C)oc12` gave an IC50 in [5] of 28 to 43 nM. The Ratio IC50 in the series filed under Homo sapiens came out at 160.

Take `C[C@@H]1CN(c2ccc3c(n2)NC(=O)CO3)CCO1`: the concentration for half-maximal inhibition (IC50) in series [1] stood at 3050 nM. With `O=c1[nH]c2cc(/C=C3\c4ccccc4COc4cc(F)ccc43)ccc2n1[C@@H]1C[C@@H]2COCCN2C1`, the Ki in series [6] was 9 nM. For `CC(=O)Oc1ccc(CCc2ccc3c(c2)NC(=O)CO3)c(C)c1`, the IC50 in series [7] is below 2 nM. For `Cc1c(C(=O)Nc2ccc(S(C)(=O)=O)cc2)cn(CCO)c1-c1ccccc1C(F)(F)F` (single isomer, unassigned; atropisomer 2), in the series with Rattus norvegicus [8], the inhibition in vivo at 3 mg/kg came out at 56%. For the molecule `CCC(O)C(CC)(c1ccc(C(F)(F)F)cc1)n1ncc2c(NS(C)(=O)=O)cccc21` (stereo unspecified), the values for the half-life in series [9], in series [11] and in series [13] were 1.2 h, 5.3 h and above 1.5 h, respectively. In addition, the Inhibitory potency in series [10] came to 4 nM. Besides, in [12], the clearance stood at 24 mL/min/kg. Consider `COC(=O)[C@@H]1CC2=CC(=O)CC[C@]2(C)[C@@]23O[C@@H]2C[C@@]2(C)[C@@H](CC[C@@]24CCC(=O)O4)[C@H]13` [EPLERENONE], for which, in the series on Rattus norvegicus [14], the inhibition in vivo at 30 mg/kg is 8%.

The values are drawn from ChEMBL document CHEMBL4007392, “Modulating Mineralocorticoid Receptor with Non-steroidal Antagonists. New Opportunities for the Development of Potent and Selective Ligands without Off-Target Side Effects” (J Med Chem, 2017).
